Test results taken from patent publication US10940188B2, “Compounds and methods for treatment and prevention of Flavivirus infection” (priority 2016, dated 2021).
pIC50: −log10 of the molar value.

Legend:
[1] = tested on: ZIKV production from SNB-19 cells; experiment: Infectious ZIKV production from SNB-19 cells, focus-forming unit assay on Vero cells; format: cell-based, Zika virus; conditions: PRVABC59-ZIKV, SNB-19 supernatants on Vero cells, ZIKV-ENV stain; read-out: IC50 against ZIKV infection in human glioblastoma cell culture
Protocol: FIGS. 2A-1, 2A-2, 2B-1, 2B-2, 2C-1, 2C-2, 2D-1, 2D-2, 2D-3, 2E-1, 2E-2, and 2F. […] Screening of select compounds for antiviral activity against ZIKV infection was carried out. Glioblastoma SNB-19 cells were treated with indicated compound at 10×AC50 (determined in the primary caspase screen) for 1 hour prior to inoculation with FSS-13025 (at MOI=1). Cells were harvested 24 hours post infection and analyzed by Western blot for ZIKV-NS1 or GAPDH (FIGS. 2A-1 and 2A-2). Titration of PHA-690509 on glioblastoma cells for anti-ZIKV activity. Three strains of virus (FSS-13025, PRVABC59, and MR766; MOI=1) were tested. Shown are sample western blot images (FIG. 2B-1) and ImageJ quantification (FIG. 2B-2). Values represent mean±s.d. (n=3; ***P<0.001; One-way ANOVA). Titration of Emricasan on SNB-19 cells for anti-ZIKV activity was conducted similarly (FIGS. 2C-1 and 2C-2). Values represent mean±s.d. […] Sample western blot (FIG. 2D-2) and ImageJ quantification (FIG. 2D-3) are shown for infection with the PRVABC59 strain (MOI=1). Results for additional strains are shown in FIGS. 6A-F. Values represent mean±s.d. […] The concentration of NS1 in the medium of infected SNB-19 cells collected 24 hours post-infection was quantified by a ZIKV-NS1 ELISA kit (FIGS. 2E-1 and 2E-2). […] Cell culture supernatant was collected 24 hours after infection, and infectious virions were quantified for focus-forming units (FFU) using Vero cells. […] Curves represent best fits for calculating IC50 values, and the insets report the calculated IC50 value for each compound.
FIGS. 18A, 18B, 18C-1, 18C-2, 18D, 18E, 18F, 18G-1, and 18G-2. […] 24 hours post infection, supernatants from SNB-19 cells were titrated onto naïve vero cells plated in a monolayer in 96-well plates for infectious focus-forming unit assay as previously described and focus forming units quantified. […] Immunofluorescence (IF) staining (FIG. 18C-1) and quantification (FIG. 18C-2) of ZIKV positive SNB-19 cells following infection with one of three ZIKV strains and treatment with emetine at 0.01, 0.1, or 1 μM. […]
FIG. 21. […] IC50's calculated using graphpad PRISM software. […]

[2] = tested on: hNPCs infected with ZIKV PRVABC59; experiment: hNPC proliferation after ZIKV infection (EdU); format: cell-based, human; conditions: PHA-690509 1 μM, Seliciclib 5 μM
Protocol: (§1) FIGS. 17A-17C. Analysis of potential toxicity of CDKis on human astrocyte viability and hNPC proliferation. Human iPSC-derived astrocytes (BJ line) were treated with each indicated compound (cpd) for 25 hours prior to cell viability analysis as measured in relative luciferase units for ATP production. Values represent mean+s.d. (n=3 cultures; ***P<0.001; **P<0.01; One-way ANOVA for comparison with the DMSO treatment). RLU: relative luminescence units. hNPCs were treated with saline, PHA-690509 (PHA, 1 μM) or Seliciclib (5 μM), 1 hour prior to ZIKV PRVABC59 infection (MOI=0.08). At 72 hours post infection, EdU (10 μM) was added to hNPCs and cells were cultured for additional 4 hours prior to fixation and staining for EdU and DAPI. Values represent mean+s.e.m. (n=3 cultures; ***P<0.001; One-way ANOVA for comparison with the mock treatment). Day 20 forebrain-specific brain organoids were treated with PHA-690509 (1 μM) or Seliciclib (5 μM) for 3 days and hNPC proliferation was evaluated by phospho-Histone 3 (PH3) expression within the ventricular zone. Values represent mean+s.e.m. (n=8 organoids; P>0.05; One-way ANOVA for comparison with the mock treatment).

[3] = tested on: forebrain-specific brain organoids; experiment: hNPC proliferation in forebrain organoids (phospho-Histone 3), compound alone; format: cell-based, human; conditions: 3 days
Protocol: as §1

Molecule CCCCCCCC(=O)Oc1ccc(Cl)cc1C(=O)Nc1ccc([N+](=O)[O-])cc1Cl [DK520] has a pIC50 [1] of over 5.52.

CC[C@H](CO)Nc1nc(NCc2ccccc2)c2ncn(C(C)C)c2n1 [Seleciclib, Seliciclib] was tested, and the “rescue of ZIKV-induced reduction of hNPC proliferation” value [2] was “partially rescued ZIKV-induced reduction of hNPC proliferation” and the “effect of the treatment itself on hNPC proliferation” value [3] was “minimal effect on hNPC proliferation in brain organoids”.
